Legend:
[1] = test system: suckling rats; experiment: Set I: intestinal morphology of distal SI, Example 3; assay type: in vivo, Rattus norvegicus; conditions: distal part of SI, in words
Experimental: (§1) All samples collected for histology were fixed with Bouin's solution for 24 hours and then stored in 70% ethanol, dehydrated, embedded into the paraffin and then cut into sections with 5 μm thickness. The tissue sections were transferred onto the slides, rehydrated and stained with H&E according to the standard technique. After mounting under cover slips samples were examined using light microscopy to estimate ratio between total length of the villus and length of the adult type enterocytes using ImageJ program.

[2] = test system: suckling rats; experiment: Set I: brush-border disaccharidase activity in proximal SI, Example 3; assay type: in vivo, Rattus norvegicus; conditions: proximal part of SI, in words (FIG. 5)
Experimental: The proximal samples of the SI were de-frozen and weighted and then homogenized with 9 parts of 0.9% NaCl (9 w/v). The homogenates (50 μl diluted samples) were incubated with the appropriate disaccharide (50 μl of 0.056M sucrose, maltose and lactose) for 1 hour at 37° C. After this, the liberated glucose was determined by adding glucose oxidase reagent (Sigma Chemicals), and incubated for 30 minutes. Then samples were transferred into the 96-well plate in triplication and the absorbance was measured at 450 nm. To measure the protein contents of the homogenates, Lowry method, was used, where BSA (Bovine Serum Albumin) was used as a standard. The results are presented as specific activity units per mg of protein (u/mg).

[3] = test system: suckling rats; experiment: Set I: plasma concentration of marker molecules BSA and BIgG (macromolecule absorption), Example 3; assay type: in vivo, Rattus norvegicus; conditions: 3 hours after marker feeding, day 17, in words (FIG. 6)
Description: The plasma level of marker molecules was quantified by using immunoassay rocket electrophoresis and SRI (single radial immunodiffusion) for plasma BSA and BIgG respectively.

[4] = test system: suckling rats; experiment: Set II: intestinal morphology of distal SI at different doses of protease, Example 4; assay type: in vivo, Rattus norvegicus; conditions: in words (FIG. 8)
Experimental: The second study was about comparing the effect of different doses of protease (15000 USP, 7500 USP, 3750 USP and […]) on the development of the GI tract with control. In this experiment 2 litters of pups were used (n=13 and n=12). Pups were divided into five groups to fed with different doses of protease; 15000 USP (n=3), P7500 USP (n=6), P 3750 USP (n=6), P 1875 USP (n=5) and water as a control (n=5). The feeding was during 3 continuous days, once a day. 24 hours after the last feeding, on day 17, similar dissection steps and analytical procedures as mentioned for the previous experiment were followed.
as §1

[5] = test system: rat pups; experiment: Set III: health and growth monitored for 3 weeks after protease, early and normal weaning, Example 5; assay type: in vivo; conditions: protease 15 000 USP
Description: In the last study, the health and the growth of the pups were monitored for 3 weeks. Pups where treated at age 14 day of life with the protease 15 000 USP/rat/day for 3 days once a day (on days 14, 15, and 16). This study performed using 3 litters (n=9, n=11 and n=10) where pups were divided into 2 groups; enzyme treated and control. After last feeding rat were further divided into subgroups: early weaning started on day 17 (n=8) and normal weaning started on day 21 (n=6). All animals were monitored via weighing for one week on a daily basis and then once a week for the next 2 weeks.

[6] = test system: suckling 14 d old rats; experiment: Exocrine pancreatic function (trypsin activity in pancreatic homogenates), Example 6; assay type: in vivo, rat; conditions: 3 d oral gavage, in words (FIG. 10)
Description: Treated groups were compared to control, *p<0.05.
The same rat model as in Experiments 3-5 was used.
The effect of microbial-derived enzymes with pancreatic activity: protease, lipase, amylase and their mixture on exocrine pancreatic secretion after 3 d of oral gavage to suckling 14 d old rats (see experiment 3-5 above). Treated groups were compared to control, *p<0.05

[7] = test system: suckling rats; experiment: Papain vs microbial protease: body and organ weight, Example 8; assay type: in vivo, Rattus norvegicus
Description: (§2) The litter size for each dam was limited to 12 or 13 pups, to reduce variability.
(§3) Suckling pups were divided into 3 groups depending on the treatments; microbial protease as a positive control, water as negative control and enzyme from papaya fruit (papain) (in total; protease=7, papain=8, control=7). The enzymes are available in the market in form of powders and were resolved in distilled water prior to stomach feeding during 14-16 d of age. The administered dose for each enzyme was 10000 USP/animal. The volume of administered enzymes and water (for control groups) was 0.01 ml/g b.wt. Prior to the feeding procedure, the pups were weighed. […] Three hours later, the pups were anaesthetized and organs were dissected out for analyses.

[8] = test system: suckling rats; experiment: Papain vs microbial protease: intestinal disaccharidase activity in proximal SI, Example 8; assay type: in vivo, Rattus norvegicus; conditions: proximal part of SI, in words (FIG. 13)
Description: as §2, §3
The activities of the brush-border enzymes lactase, maltase and sucrase were analyzed in the proximal part of the SI in groups treated with papain and protease.

[9] = test system: suckling piglets; experiment: Suckling pig model II: marker molecules absorption in vivo after microbial protease, Experiment 10; conditions: protease treated piglets vs control
Experimental: All piglets were kept with sow until the weaning day. Piglets from 5-6 litters divided into 2 groups and treated with microbial protease (Sigma) (enz group) or water (cont) (n=28 per group), total 56. The dose of enzymes was 60 mg/ml with activity 1000 USP per 1 mg, the administration volume was 4 ml/kg b. wt, the frequency of administration was every second day (ones a day). Treatment via gavage feeding was started at 8 d of age and was done 3 times, (i.e. 8, 10, 12 d of life).
Separate piglets (6 enzyme treated and 6 control pigs) were fed with marker molecule solution (Bovine serum albumin (BSA) in concentration 125 mg/ml and sodium fluorescein (NaF) in concentration 2.5 mg/ml; the administration volume was 4 ml/kg b.wt) at age 14 d of life and 27 d of life (the weaning day). Blood was collected at 0, […], 1, 2, 4, 8, and 24 hours after marker-cocktail feeding.

[10] = test system: suckling rats; experiment: Set I: body weight, GI and lymphoid organ weights, stomach pH after individual enzymes or mixture, Example 3
Experimental: All experiments were performed in young suckling rats by feeding them from 14 days of age via stomach tube for 3 continuous days (ones a day). One day after last treatment rats were euthanized and plasma and organs proceeded to study structural and functional changes of gastrointestinal system.
The pups were kept with their dam until dissection day (day 17).
In this set suckling pups were divided into five groups; control (water) amylase 10 000 USP/rat/day, lipase 4 000 USP/rat/day, protease 15 000 USP/rat/day, and mixture of these enzyme with corresponding activities per rat and day. This study was evaluating the effects of different pancreatic-like enzymes on the gut maturation and functioning and had 3 individual litters; n=12, n=10 and n=13, totally n=7 pups per each group. Each of the enzymes (Amylase, Protease and Lipase) (Sigma Aldrich) was available in the powder form and was resolved in distilled water prior to stomach feeding during days 14, 15 and 16. The volume of administered enzymes and distilled water (for control groups) was 0.01 ml/g BW. Each time, prior to the feeding procedure, the pups were weighed. […] Then 3 hours later, the pups were sedated with CO2 and anaesthetized by subcutaneous injection with a mixture of ketamine (Ketalar®, Pfizer, New York, USA, NaCl and azaperone (Stresnil®, Janssen Pharmaceutica, Beerse, Belgium), 0.01 ml/g BW. After opening the abdomen of the rats, 1 ml of blood was collected from heart by using syringes containing protease inhibitor and EDTA (50 μl) as anticoagulant and was transferred into ice-chilled tubes. After this, the pancreas was immediately dissected and rinsed with cold 0.9% NaCl, weighted and stored at −70 C. The SI was removed and its length was measured then divided into two halves, proximal and distal. Each segment was flushed out with cold 0.9% NaCl to clean the lumen and was then weighed separately. […] The stomach was removed and its content was collected into the tube (for measuring its pH) and frozen. Then cecum was dissected out, opened, rinse and weighed as well as liver and lymphoid organs spleen and thymus were dissected and weighted.
The contents of the stomach were de-frozen and then resolved with 1 ml of cold 0.9% NaCl. After resolving, they were centrifuged and the pH was measured in the supernatant using pH-meter.
All data are presented as mean±standard deviation (SD). Statistical comparisons between each group and control group were performed using the t-test. Results were considered as significant when P<0.05.

[11] = 10000 USP/animal, days 14-16, day 17

## Proteinase from Aspergillus melleus [Protease]
[1]
  replacement of vacuolated enterocytes by adult type enterocytes: all of the vacuolated enterocytes were replaced with adult type enterocytes
[2]
  lactase activity: decreased
  maltase activity: significantly increased
  sucrase activity: significantly increased
[3]
  uptake of marker molecule BIgG to plasma: significantly lower
  uptake of marker molecule BSA to plasma: significantly lower
[4]; protease 1875 USP
  vacuolated (fetal-type) enterocytes in distal SI: limited to the middle and the tip of the villi
[4]; protease 3750 USP
  vacuolated (fetal-type) enterocytes in distal SI: limited to the middle and the tip of the villi
[4]; protease 7500 USP
  vacuolated (fetal-type) enterocytes in distal SI: limited to the middle and the tip of the villi
[4]; protease 15000 USP
  vacuolated (fetal-type) enterocytes in distal SI: all of the vacuolated enterocytes disappeared
[5]; after first treatment
  diarrhea: signs of diarrhea
[5]; in words (FIG. 9)
  growth in comparison to control group: decrease in growth after first treatment
[5]; weaning day 17, in words
  effect of early weaning on treated group: no disadvantage
[6]
  stimulation of the pancreatic function: most efficient enzyme for stimulation of the pancreatic function
[7]; [11]
  Body weight: 34.8 ± 3.31 gr
  Cecum: 2.89 ± 0.47 mg/g BW
  Distal SI: 15.2 ± 2.3 mg/g BW
  Liver: 32.22 ± 1.37 mg/g BW
  Pncrease: 3.87 ± 0.34 mg/g BW
  Proxima SI: 20.24 ± 2.37 mg/g BW
  SI length: 1.59 ± 0.18 cm/g BW
  Spleen: 3.18 ± 0.23 mg/g BW
  Stomach: 6.71 ± 0.41 mg/g BW
  Thymus: 4.95 ± 0.93 mg/g BW
[7]; dose 10 000 USP, days 14 to 17, in words (FIG. 12)
  effect on body growth: No effect
[8]
  activity of maltase compared to control: significantly increased
  activity of sucrase compared to control: significantly increased
[9]; in words (FIG. 20A)
  intestinal permeability for BSA: decreased intestinal permeability
[9]; in words (FIG. 20B)
  intestinal permeability for NaF: decreased intestinal permeability
[10]; 3 days treatment, day 17
  Body weight: 33.6 ± 1.9 gr
  Cecum: 4.0 ± 0.5 mg/g BW
  Distal SI: 17.8 ± 2.5 mg/g BW
  Liver: 35.8 ± 2.5 mg/g BW
  Pancreas: 4.3 ± 0.4 mg/g BW
  Proximal SI: 24.7 ± 3.5 mg/g BW
  SI length: 1.7 ± 0.1 cm/g BW
  Spleen: 3.4 ± 0.5 mg/g BW
  Stomach: 7.2 ± 0.7 mg/g BW
  Thymus: 3.96 ± 0.4 mg/g BW
[10]; after receiving the first dose
  diarrhoea: diarrhoea observed after receiving the first dose
[10]; stomach contents, day 17
  pH: 3.5 ± 0.3

Source: patent publication US9205137B2, “Maturation of gastrointestinal tract” (ANARA AB, priority 2010, dated 2015)
